In US20210261621A1, “Preparation of Dilipid Polymixins and Use Thereof as Antimicrobial Adjuvants” (priority 2018, published 2021):
≈ marks a conversion by molar mass, not a printed value. Read-outs that look alike come from different tables or passages of the source. Positions of bridges follow the written chain, without caps; N, C: chain ends. Non-standard residues stand in square brackets, D forms with d. Residues, ends and D or L forms follow the SMILES beside them. *: point of attachment. Lauroyl = CCCCCCCCCCCC(=O)*; Octanoyl = CCCCCCCC(=O)*; Dab = NCC[C@H](N)C(=O)O; Butyryl = CCCC(=O)*

Tests used:
[1] = system: S. maltophilia CAN-ICU 62584; assay type: cell-based, Stenotrophomonas maltophilia
From the text: (§1) Bacterial strains were either obtained from the American Type Culture Collection (ATCC), Canadian National Intensive Care Unit (CAN-ICU) surveillance study or the Canadian Ward Surveillance (CANWARD) study. Strains from both CAN-ICU and CANWARD are isolates recovered from patients diagnosed with a presumed infectious disease that were admitted in a participating medical center across Canada. Efflux-deficient strain PAO200 (lacking MexAB-OprM efflux system) and PA0750 (lacking MexAB-OprM, MexCD-OprJ, MexEF-OprN, MexJK and MexXY efflux systems, and the outer membrane protein OpmH) were kindly gifted by Dr. Ayush Kumar (University of Manitoba).
(§2) The in vitro antibacterial activity of the compounds studied were assessed by broth microdilution susceptibility testing following CLSI guidelines. Bacterial cultures were grown overnight prior to the assay. The overnight grown cultures were diluted in saline to 0.5 McFarland turbidity, followed by 1:50 dilution in Mueller-Hinton broth (MHB) for inoculation to a final concentration of approximately 5×10^5 colony forming units/mL. Testing was performed on 96-well plates where the tested compounds were 2-fold serially diluted in MHB and incubated with equal volumes of bacterial inoculum at 37° C. for 18 h. […] Wells containing MHB with or without bacterial cells were used as positive or negative control, respectively.

MRSE CAN-ICU 61589 = assay type: cell-based, S. epidermidis
From the text: as §1, §2

[2] = system: E. coli CANWARD-2011 97615; assay type: cell-based, Escherichia coli
From the text: as §1, §2

A. baumannii AB027 = assay type: cell-based, Acinetobacter baumannii
From the text: as §1, §2

P. aeruginosa ATCC 27853 = assay type: cell-based, Pseudomonas aeruginosa
From the text: as §1, §2

P. aeruginosa PA100036 = assay type: cell-based, Pseudomonas aeruginosa
From the text: as §1, §2

[3] = system: P. aeruginosa PA260-97103; assay type: cell-based, Pseudomonas aeruginosa; details: PA260-97103
From the text: as §1, §2

P. aeruginosa PA095 = assay type: cell-based, Pseudomonas aeruginosa; details: PA095
From the text: as §1, §2

[4] = system: P. aeruginosa CANWARD-2011 96846; assay type: cell-based, Pseudomonas aeruginosa
From the text: as §1, §2

[5] = system: P. aeruginosa PA264-104354; assay type: cell-based, Pseudomonas aeruginosa; details: PA264-104354
From the text: as §1, §2

P. aeruginosa PA101885 = assay type: cell-based, Pseudomonas aeruginosa; details: PA101885
From the text: as §1, §2

[6] = system: P. aeruginosa PA259-96918; assay type: cell-based, Pseudomonas aeruginosa; details: PA259-96918
From the text: as §1, §2

[7] = system: P. aeruginosa CAN-ICU 62308; assay type: cell-based, Pseudomonas aeruginosa
From the text: as §1, §2

[8] = system: P. aeruginosa PA262-101856; assay type: cell-based, Pseudomonas aeruginosa
From the text: as §1, §2

P. aeruginosa PAO1 = assay type: cell-based, Pseudomonas aeruginosa
From the text: as §1, §2

E. faecium ATCC 27270 = assay type: cell-based
From the text: as §1, §2

S. pneumoniae ATCC 49619 = assay type: cell-based
From the text: as §1, §2

E. faecalis ATCC 29212 = assay type: cell-based
From the text: as §1, §2

E. cloacae 117029 = assay type: cell-based, Enterobacter cloacae; details: 117029
From the text: as §1, §2

Procedure for pig erythrocytes: The ability of the compounds to lyse eukaryotic red blood cells was measured by the amount of hemoglobin released upon incubation with pig erythrocytes, following a published protocol [30]. Briefly, fresh pig blood (generously provided by Dr. Richard Hodges, Director of Animal Care and Veterinary Services of the University of Manitoba) drawn from a pig's antecubital vein was centrifuged at 1000 g for 5 min at 4° C., washed with phosphate-buffered saline (PBS) three times, and re-suspended in the same buffer, consecutively. Compounds at study were 2-fold serially diluted in PBS on a 96-well plate and mixed with equal volumes of erythrocyte solution. Post 1 h incubation at 37° C., the intact cells were pelleted by centrifugation at 1000 g for 5 min at 4° C. Resulting supernatant was then transferred to a new 96-well plate. The hemoglobin released was then measured via an EMax Plus microplate reader (Molecular Devices, USA) at 570 nm wavelength. Erythrocytes in PBS with or without 0.1% Triton X-100 were used as positive or negative control, respectively.

Question: With `CCCC(=O)NCC[C@H](NC(=O)CCC)C(=O)N[C@H](C(=O)N[C@@H](CCN)C(=O)N[C@H]1CCNC(=O)[C@H]([C@@H](C)O)NC(=O)[C@H](CCN)NC(=O)[C@H](CCN)NC(=O)[C@H](CC(C)C)NC(=O)[C@@H](Cc2ccccc2)NC(=O)[C@H](CCN)NC1=O)[C@@H](C)O` [Compound 1, Dibutyric Acid (Di-C4) Polymyxin] (Butyryl-[Dab](Butyryl)T[Dab][Dab][Dab][dF]L[Dab][Dab]T; lactam 4-C) as the compound, how does the “% Hemolysis at 512 μg/mL of polymyxin” value (pig erythrocytes; red cells of pig, 1 h, 512) read?
Answer: 1.1 ± 1.6%

Question: What about the MIC ([1]; S. maltophilia CAN-ICU 62584) of the same compound?
Answer: >128 µg/mL

Question: And the MIC (MRSE CAN-ICU 61589; MRSE CAN-ICU 61589 (methicillin-resistant S. epidermidis))?
Answer: >128 µg/mL

Question: And the MIC [2]?
Answer: >128 µg/mL

Question: And the MIC (A. baumannii AB027; A. baumannii AB027)?
Answer: >128 µg/mL

Question: What about the MIC (P. aeruginosa ATCC 27853; P. aeruginosa ATCC 27853) of the same compound?
Answer: >128 µg/mL

Question: And the MIC (P. aeruginosa PA100036; P. aeruginosa PA100036)?
Answer: >128 µg/mL

Question: And the MIC [3]?
Answer: 2 µg/mL (≈ 1.66 µM)

Question: And the MIC (P. aeruginosa PA095)?
Answer: 64 µg/mL (≈ 53.2 µM)

Question: What about the MIC [4] of the same compound?
Answer: >128 µg/mL

Question: And the MIC [5]?
Answer: 128 µg/mL (≈ 106 µM)

Question: What about the MIC (P. aeruginosa PA101885) of the same compound?
Answer: 128 µg/mL (≈ 106 µM)

Question: And the MIC [6]?
Answer: 64 µg/mL (≈ 53.2 µM)

Question: What about the MIC ([7]; P. aeruginosa CAN-ICU 62308) of the same compound?
Answer: >128 µg/mL

Question: What about the MIC ([8]; P. aeruginosa PA262-101856) of the same compound?
Answer: >128 µg/mL

Question: What about the MIC (P. aeruginosa PAO1; P. aeruginosa PAO1 (wild type)) of the same compound?
Answer: 128 µg/mL (≈ 106 µM)

Question: What about the MIC (E. faecium ATCC 27270; E. faecium ATCC 27270) of the same compound?
Answer: >128 µg/mL

Question: What about the MIC (S. pneumoniae ATCC 49619; S. pneumoniae ATCC 49619) of the same compound?
Answer: >128 µg/mL

Question: What about the MIC (E. faecalis ATCC 29212; E. faecalis ATCC 29212) of the same compound?
Answer: >128 µg/mL

Question: What about the MIC (E. cloacae 117029) of the same compound?
Answer: 64 µg/mL (≈ 53.2 µM)

Question: How did the “% Hemolysis at 512 μg/mL of polymyxin” value (pig erythrocytes) turn out when `CCCCCCCC(=O)NCC[C@H](NC(=O)CCCCCCC)C(=O)N[C@H](C(=O)N[C@@H](CCN)C(=O)N[C@H]1CCNC(=O)[C@H]([C@@H](C)O)NC(=O)[C@H](CCN)NC(=O)[C@H](CCN)NC(=O)[C@H](CC(C)C)NC(=O)[C@@H](Cc2ccccc2)NC(=O)[C@H](CCN)NC1=O)[C@@H](C)O` [Compound 2, Dioctanoic Acid (Di-C8) Polymyxin] (Octanoyl-[Dab](Octanoyl)T[Dab][Dab][Dab][dF]L[Dab][Dab]T; lactam 4-C) was run?
Answer: 6.2%

Question: And the MIC ([1]; CAN-ICU 62584)?
Answer: 32 µg/mL (≈ 24.3 µM)

Question: And the MIC (MRSE CAN-ICU 61589; CAN-ICU 61589)?
Answer: 16 µg/mL (≈ 12.2 µM)

Question: What about the MIC [2] of the same compound?
Answer: 64 µg/mL (≈ 48.6 µM)

Question: And the MIC (A. baumannii AB027; AB027)?
Answer: 32 µg/mL (≈ 24.3 µM)

Question: What about the MIC (P. aeruginosa ATCC 27853; ATCC 27853) of the same compound?
Answer: 8 µg/mL (≈ 6.08 µM)

Question: And the MIC (P. aeruginosa PA100036; PA100036)?
Answer: 4 µg/mL (≈ 3.04 µM)

Question: And the MIC [3]?
Answer: 2 µg/mL (≈ 1.52 µM)

Question: What about the MIC (P. aeruginosa PA095) of the same compound?
Answer: 2 µg/mL (≈ 1.52 µM)

Question: What about the MIC [4] of the same compound?
Answer: 8 µg/mL (≈ 6.08 µM)

Question: And the MIC [5]?
Answer: 4 µg/mL (≈ 3.04 µM)

Question: What about the MIC (P. aeruginosa PA101885) of the same compound?
Answer: 4 µg/mL (≈ 3.04 µM)

Question: And the MIC [6]?
Answer: 2 µg/mL (≈ 1.52 µM)

Question: What about the MIC ([7]; CAN-ICU 62308) of the same compound?
Answer: 8 µg/mL (≈ 6.08 µM)

Question: What about the MIC ([8]; PA262-101856) of the same compound?
Answer: 8 µg/mL (≈ 6.08 µM)

Question: What about the MIC (P. aeruginosa PAO1; PAO1) of the same compound?
Answer: 4 µg/mL (≈ 3.04 µM)

Question: And the MIC (E. faecium ATCC 27270; ATCC 27270)?
Answer: 16 µg/mL (≈ 12.2 µM)

Question: And the MIC (S. pneumoniae ATCC 49619; ATCC 49619)?
Answer: 32 µg/mL (≈ 24.3 µM)

Question: What about the MIC (E. faecalis ATCC 29212; ATCC 29212) of the same compound?
Answer: 32 µg/mL (≈ 24.3 µM)

Question: What about the MIC (E. cloacae 117029) of the same compound?
Answer: 2 µg/mL (≈ 1.52 µM)

Question: For `CCCCCCCCCCCC(=O)NCC[C@H](NC(=O)CCCCCCCCCCC)C(=O)N[C@H](C(=O)N[C@@H](CCN)C(=O)N[C@H]1CCNC(=O)[C@H]([C@@H](C)O)NC(=O)[C@H](CCN)NC(=O)[C@H](CCN)NC(=O)[C@H](CC(C)C)NC(=O)[C@@H](Cc2ccccc2)NC(=O)[C@H](CCN)NC1=O)[C@@H](C)O` [Compound 3, Didodecanoic Acid (Di-C12) Polymyxin] (Lauroyl-[Dab](Lauroyl)T[Dab][Dab][Dab][dF]L[Dab][Dab]T; lactam 4-C), which “% Hemolysis at 512 μg/mL of polymyxin” value (pig erythrocytes; red cells of pig, 1 h, 512) is on record?
Answer: 49.7 ± 3.3%

Question: What about the MIC ([1]; CAN-ICU 62584) of the same compound?
Answer: 128 µg/mL (≈ 89.6 µM)

Question: What about the MIC (MRSE CAN-ICU 61589; CAN-ICU 61589) of the same compound?
Answer: 64 µg/mL (≈ 44.8 µM)

Question: What about the MIC [2] of the same compound?
Answer: 64 µg/mL (≈ 44.8 µM)

Question: What about the MIC (A. baumannii AB027; AB027) of the same compound?
Answer: 128 µg/mL (≈ 89.6 µM)

Question: And the MIC (P. aeruginosa ATCC 27853; P. aeruginosa ATCC 27853)?
Answer: >128 µg/mL

Question: What about the MIC (P. aeruginosa PA100036; PA100036) of the same compound?
Answer: 32 µg/mL (≈ 22.4 µM)

Question: And the MIC [3]?
Answer: 32 µg/mL (≈ 22.4 µM)

Question: What about the MIC (P. aeruginosa PA095) of the same compound?
Answer: 8 µg/mL (≈ 5.6 µM)

Question: And the MIC [4]?
Answer: >128 µg/mL

Question: And the MIC [5]?
Answer: 64 µg/mL (≈ 44.8 µM)

Question: What about the MIC (P. aeruginosa PA101885) of the same compound?
Answer: 32 µg/mL (≈ 22.4 µM)

Question: What about the MIC [6] of the same compound?
Answer: 16 µg/mL (≈ 11.2 µM)

Question: What about the MIC ([7]; CAN-ICU 62308) of the same compound?
Answer: 64 µg/mL (≈ 44.8 µM)

Question: What about the MIC ([8]; PA262-101856) of the same compound?
Answer: 32 µg/mL (≈ 22.4 µM)

Question: And the MIC (P. aeruginosa PAO1; PAO1)?
Answer: 32 µg/mL (≈ 22.4 µM)

Question: What about the MIC (E. faecium ATCC 27270; ATCC 27270) of the same compound?
Answer: 8 µg/mL (≈ 5.6 µM)

Question: What about the MIC (S. pneumoniae ATCC 49619; ATCC 49619) of the same compound?
Answer: 64 µg/mL (≈ 44.8 µM)

Question: And the MIC (E. faecalis ATCC 29212; ATCC 29212)?
Answer: 64 µg/mL (≈ 44.8 µM)

Question: What about the MIC (E. cloacae 117029) of the same compound?
Answer: 16 µg/mL (≈ 11.2 µM)
